Converted amounts (≈) assume the structure as drawn. Where a name gives a salt, the structure may show the parent alone. Read-outs that look alike come from different tables or passages of the source.
Tests used:
Assay type in all cases: cell-based
Bacillus anthracis = test: microbe, parasite or virus in culture; conditions: read-out: MIC B.a.
[1] = system: M. tuberculosis clinical isolates; test: microbe, parasite or virus in culture; conditions: Mycobacterium tuberculosis
[2] = system: Proteus vulgaris (ATCC 33420); test: MIC determination, microbroth dilution; conditions: ATCC33420
[3] = system: Neisseria meningitides (ATCC 13077); test: Disc diffusion assay; conditions: ATCC13077, 4 μg per disc, read-out: Zone of inhibition N.m.
[4] = system: Legionella pneumophila (ATCC 33153); test: microbe, parasite or virus in culture; conditions: ATCC33153, 72 h, read-out: Zone of inhibition L.p.
Listeria monocytogenes = test: MIC determination (Table 6)
[5] = system: Stenotrophomonas maltophilia (ATCC 13637); test: MIC determination, microbroth dilution
E. coli K12 ΔtolC = test: microbe, parasite or virus in culture; conditions: Escherichia coli, read-out: MIC E.c. Δtolc
[6] = system: Proteus mirabilis (ATCC 25933); test: MIC determination, microbroth dilution; conditions: ATCC25933
[7] = system: Burkholderia cepacia (ATCC 25416); test: MIC determination, microbroth dilution; conditions: Burkholderia cepacia
[8] = system: MRSA, Staphylococcus aureus (NRS70); test: MIC determination, microbroth dilution; conditions: read-out: MIC MRSA
[9] = system: Pseudomonas aeruginosa (PA01); test: MIC determination, microbroth dilution
[10] = system: Klebsiella pneumoniae (ATCC 33495); test: MIC determination, microbroth dilution; conditions: ATCC33495
[11] = system: Staphylococcus aureus (ATCC 29213); test: MIC determination, microbroth dilution
[12] = system: Neisseria gonorrhoeae (ATCC 49226); test: Disc diffusion assay; conditions: ATCC49226, 4 μg per disc, read-out: Zone of inhibition N.g.
[13] = system: Enterococcus faecalis (ATCC 33186); test: MIC determination, microbroth dilution
[14] = system: Escherichia coli (ATCC 700926); test: MIC determination, microbroth dilution; conditions: ATCC700926; Escherichia coli (ATCC 700926); read-out: MIC E.c.
[15] = system: Streptococcus pyogenes (ATCC 700294); test: MIC determination, microbroth dilution
[16] = system: acinetobacter baumannii (ATCC 19606); test: MIC determination, microbroth dilution; conditions: ATCC19606
[17] = system: Haemophilus influenza (ATCC 49247); test: microbe, parasite or virus in culture; conditions: ATCC49247; Haemophilus influenza; 4 μg per disc; range of at least two experiments; read-out: Zone of inhibition H.i.
[18] = system: Streptococcus pneumoniae (R6); test: MIC determination, microbroth dilution; conditions: read-out: MIC S. pn.
[19] = system: Bacillus subtilis (ATCC 23857); test: MIC determination, microbroth dilution
[20] = system: Bacillus anthracis, Sterne 34F2; test: microbe, parasite or virus in culture; conditions: STERNE34F2, read-out: MIC B.a.
Moraxella catarrhalis = test: MIC determination (Table 6)
[21] = system: Neisseria gonorrhoeae (ATCC 49226); test: Agar MIC determination (Alamar Blue); conditions: ATCC49226, agar MIC, read-out: MIC N.g.
[22] = ATCC13637, Stenotrophomonas maltophilia (ATCC 13637), read-out: MIC S.m.
[23] = ATCC25416, read-out: MIC B.c., Burkholderia cepacia (ATCC 25416)
[24] = ATCC25416, read-out: MIC B.c., Burkholderia cepacia, Table 6
[25] = ATCC29213, Staphylococcus aureus (ATCC 29213), read-out: MIC S.a.
[26] = ATCC33186, Enterococcus faecalis (ATCC 33186), read-out: MIC E.f.
[27] = ATCC700294, Streptococcus pyogenes (ATCC 700294), read-out: MIC S. py.
[28] = ATCC23857, Bacillus subtilis (ATCC 23857), read-out: MIC B.s.

Compound | MIC (Bacillus anthracis) [µg/mL] | MIC ([1]; H37RV, read-out: MIC H37Rv) [µg/mL] | MIC [2] [µg/mL] | zone of inhibition at 4 µg/disc [3] [mm] | zone of inhibition at 4 µg/disc [4] [mm] | MIC [5, 22] [µg/mL] | MIC [6] [µg/mL] | MIC [7, 23] [µg/mL] | MIC [7, 24] [µg/mL] | MIC ([8]; Staphylococcus aureus (NRS70)) [µg/mL] | MIC [9] [µg/mL] | MIC [10] [µg/mL] | MIC [11, 25] [µg/mL] | zone of inhibition at 4 µg/disc [12] [mm] | MIC [15, 27] [µg/mL] | MIC [16] [µg/mL] | zone of inhibition at 4 µg/disc [17] [mm] | MIC ([18]; Streptococcus pneumoniae (R6)) [µg/mL] | MIC [19, 28] [µg/mL] | MIC [20] [µg/mL] | further results
CN[C@@H]1[C@H](O)[C@H](NC)[C@H]2O[C@]3(O)[C@H](O[C@@H]2[C@H]1O)O[C@H](C)C[C@@]3(O)CNCc1ccc(C)cc1C [compound 24, 3′-(R)-3′-[(2,4-dimethyl)benzylaminomethyl)]dihydrospectinomycin Trihydrochloride] | 50 | 25 | 200 | 17 | 18 | 25 to 50 | > 200 | > 200 | > 200 | 50 | 50 | 100 to 200 | 6.3 to 12.5 | 18 | 1.6 | 200 | 14 | 3.1 | 12.5 | 50 | MIC (Listeria monocytogenes): 12.5 µg/mL; MIC (E. coli K12 ΔtolC): 12.5 to 25 µg/mL; MIC [13, 26]: 12.5 µg/mL; MIC [14]: 25 µg/mL; MIC (Moraxella catarrhalis): 1.6 µg/mL
CN[C@@H]1[C@H](O)[C@H](NC)[C@H]2O[C@]3(O)[C@H](O[C@@H]2[C@H]1O)O[C@H](C)C[C@@]3(O)CNCc1ccc(C(C)C)cc1 [compound 23, 3′-(R)-3′-[(4-isopropyl)benzylaminomethyl)]dihydrospectinomycin Trihydrochloride] | 12.5 | 25 | > 200 | 17 | 12 | 6.3 | > 200 | > 200 | > 200 | – | 25 | 50 | – | 18 | 1.6 | 50 | 15 | 1.6 to 3.1 | 6.3 | 12.5 | MIC (Listeria monocytogenes): 6.3 µg/mL; MIC (E. coli K12 ΔtolC): 3.1 to 6.3 µg/mL; MIC ([8]; Staphylococcus aureus): 12.5 µg/mL; MIC ([11]; Staphylococcus aureus, ATCC29213, read-out: MIC S.a.): 12.5 to 25 µg/mL; MIC ([13]; Enterococcus faecalis, ATCC33186, read-out: MIC E.f.): 12.5 µg/mL; MIC [14]: 12.5 µg/mL; MIC (Moraxella catarrhalis): 3.1 to 6.3 µg/mL
CN[C@@H]1[C@H](O)[C@H](NC)[C@H]2O[C@]3(O)[C@H](O[C@@H]2[C@H]1O)O[C@H](C)C[C@@]3(O)CNCc1nc2ccccc2s1 [compound 34, 3′-(A′)-3′-(benzo[d]thiazolylmethyl)aminomethyl dihydrospectinomycin Trihydrobromide] | – | 12.5 | > 200 | 12 | – | 100 | > 200 | > 200 | – | 100 to 200 | > 200 | 100 to 200 | 50 to 100 | 8 | 3.1 | > 200 | 7 | 6.3 | 50 to 100 | 50 | MIC [13, 26]: 25 µg/mL; MIC [21]: 100 µg/mL
CN[C@@H]1[C@H](O)[C@H](NC)[C@H]2O[C@]3(O)[C@H](O[C@@H]2[C@H]1O)O[C@H](C)C[C@@]3(O)CNCc1cnc[nH]1 [compound 20] | 50 to 100 (≈ 113 to 225 µM) | 6.3 (≈ 14.2 µM) | 100 to 200 (≈ 225 to 451 µM) | – | – | 3.1 to 6.3 (≈ 6.99 to 14.2 µM) | 200 (≈ 451 µM) | 100 to 200 (≈ 225 to 451 µM) | 100 to 200 (≈ 225 to 451 µM) | ≥ 200 | 200 (≈ 451 µM) | 50 to 100 (≈ 113 to 225 µM) | 200 (≈ 451 µM) | – | 50 (≈ 113 µM) | > 200 | – | 25 to 50 (≈ 56.4 to 113 µM) | 25 (≈ 56.4 µM) | 50 to 100 (≈ 113 to 225 µM) | MIC (E. coli K12 ΔtolC): 25 µg/mL (≈ 56.4 µM); MIC [13, 26]: 100 µg/mL (≈ 225 µM); MIC [14]: 50 µg/mL (≈ 113 µM); MIC [21]: 100 to 200 µg/mL (≈ 225 to 451 µM)
CN[C@@H]1[C@H](O)[C@H](NC)[C@H]2O[C@]3(O)[C@H](O[C@@H]2[C@H]1O)O[C@H](C)C[C@@]3(O)CNCc1cccc(OC(F)(F)F)c1 [compound 25, 3′-(R)-3′-[(3-trifluoromethoxyl)benzylaminomethyl)]dihydrospectinomycin Trihydrochloride] | 25 | 200 | > 200 | 18 | 19 | 12.5 to 25 | > 200 | – | > 200 | 50 | 50 to 100 | – | 25 to 50 | 18 | 1.6 | – | 9 to 10 | 1.6 to 3.1 | 12.5 to 25 | 25 | MIC (Listeria monocytogenes): 6.3 µg/mL; MIC [13, 26]: 12.5 to 25 µg/mL; MIC (Moraxella catarrhalis): 6.3 µg/mL
CN[C@@H]1[C@H](O)[C@H](NC)[C@H]2O[C@]3(O)[C@H](O[C@@H]2[C@H]1O)O[C@H](C)C[C@@]3(O)CNCCN1CCOCC1 [compound 51, 3′-(R)-3′-[(2-morpholinoethyl)aminomethyl]dihydrospectinomycin tetrahydrochloride] | 100 to 200 | 25 | ≥ 200 | 6 | 22 | 50 | 50 to 100 | > 200 | > 200 | > 200 | ≥ 200 | 100 to 200 | 100 to 200 | 0 | 100 | > 200 | 6 | 100 | 50 to 100 | 100 to 200 | MIC ([1]; read-out: MIC TN022): 50 µg/mL; MIC ([1]; read-out: MIC TN026): 100 µg/mL; MIC (Listeria monocytogenes): 25 µg/mL; MIC (E. coli K12 ΔtolC): 25 to 50 µg/mL; MIC [14]: 50 µg/mL; MIC (Moraxella catarrhalis): 3.1 µg/mL
CN[C@@H]1[C@H](O)[C@H](NC)[C@H]2O[C@]3(O)[C@H](O[C@@H]2[C@H]1O)O[C@H](C)C[C@@]3(O)CNCCc1ccc(OC)cc1 [compound 53, 3′-(R)-3′-[(4-methoxy)phenethylaminomethyl]dihydrospectinomycin Trihydrochloride] | 25 to 50 | 6.3 | 200 | 10 | 30 | – | > 200 | > 200 | > 200 | 100 | > 200 | 100 to 200 | 25 | 12 | – | > 200 | 11 | – | – | 25 to 50 | MIC ([1]; read-out: MIC TN022): 12.5 µg/mL; MIC ([1]; read-out: MIC TN026): 12.5 µg/mL; MIC (Listeria monocytogenes): 6.3 µg/mL; MIC ([5]; Stenotrophomonas maltophilia, ATCC13637, read-out: MIC S.m.): 12.5 µg/mL; MIC (E. coli K12 ΔtolC): 12.5 µg/mL; MIC [14]: 50 µg/mL; MIC ([15]; Streptococcus pyogenes, ATCC700294, read-out: MIC S. py.): 12.5 to 25 µg/mL; MIC ([18]; Streptococcus pneumoniae): 12.5 µg/mL; MIC ([19]; Bacillus subtilis, ATCC23857, read-out: MIC B.s.): 12.5 µg/mL; MIC (Moraxella catarrhalis): 3.1 µg/mL

Reference: patent US10266544B2, “Aryl substituted aminomethyl spectinomycin analogs as antibacterial agents” (ST. JUDE CHILDREN'S RESEARCH HOSPITAL, INC., priority 2013, dated 2019)
